Patent US20210386505A1, “BACTERIAL BIOFILM STAINING DEVICE AND METHODS OF USE” (University of Utah Research Foundation, priority 2020, published 2021)

Legend:
[1] = tested on: Pseudomonas aeruginosa (ATCC 27853) biofilms; experiment: Transmission light photometry of MB bound to stained biofilms; format: cell-based; details: P. aeruginosa biofilm, 0.01% MB, 5 min stain, n=6
Protocol: (§1) Staphylococcus aureus (ATCC 6538) and Pseudomonas aeruginosa (ATCC 27853) biofilms were grown for the respective experiments (2 days) in a CBR 90 CDC biofilm reactor (BioSurface Technologies Corporation, Bozeman, Mont.) on either titanium, cobalt chromium, polyether ether ketone (PEEK), and polyethylene (PE) coupons using previously established methods. Briefly, a 0.5 McFarland standard (˜7.5×10^7 colony forming units (CFU)) was made from a 24 hour tryptic soy agar plate culture; 1 mL was then used to inoculate 500 mL of 100% Brain Heart Infusion (BHI) broth in the biofilm reactor. The reactor and its contents were incubated at 34° C. on a hot plate with baffle rotation for 24 hours. […] Quantification of biofilm bioburden was performed on representative coupons from each reactor by dispersing the respective biofilm into 2 mL of fresh 1× phosphate buffered saline (PBS) following an established protocol: sequentially vortexing for 1 minute, sonicating for 10 minutes and vortexing […]. The CFUs were calculated by 10-fold serial dilution plating and colony counting. […]
(§2) Transmission photometry was used to determine the amount of MB bound to biofilms grown and stained using the above protocols. […] The exposure was fixed for all images analyzed; ambient light sources were eliminated by darkening the room. […]

[2] = tested on: Staphylococcus aureus (ATCC 6538) biofilms; experiment: as above; format: cell-based; details: S. aureus biofilm, 0.01% MB, 5 min stain, n=6
Protocol: as §1, §2

S. aureus biofilms = experiment: Visual MB staining of biofilms on orthopedic coupons, confirmed by SEM; format: cell-based, Staphylococcus aureus; details: S. aureus biofilms on titanium, cobalt chromium, polyethylene, PEEK coupons; dilute MB
Protocol: (§3) Staphylococcus aureus (ATCC 6538) and Pseudomonas aeruginosa (ATCC 27853) biofilms were grown for the respective experiments (2 days) in a CBR 90 CDC biofilm reactor (BioSurface Technologies Corporation, Bozeman, Mont.) on either titanium, cobalt chromium, polyether ether ketone (PEEK), and polyethylene (PE) coupons using previously established methods. Briefly, a 0.5 McFarland standard (˜7.5×10^7 colony forming units (CFU)) was made from a 24 hour tryptic soy agar plate culture; 1 mL was then used to inoculate 500 mL of 100% Brain Heart Infusion (BHI) broth in the biofilm reactor. The reactor and its contents were incubated at 34° C. on a hot plate with baffle rotation for 24 hours. After 24 hours, the reactor was flushed continuously with 10% BHI at 6.94 mL/min for the subsequent 24 hours. Prior to subsequent work, the biofilm coupons were removed aseptically and rinsed in PBS. Quantification of biofilm bioburden was performed on representative coupons from each reactor by dispersing the respective biofilm into 2 mL of fresh 1× phosphate buffered saline (PBS) following an established protocol: sequentially vortexing for 1 minute, sonicating for 10 minutes and vortexing […]. The CFUs were calculated by 10-fold serial dilution plating and colony counting. […]

P. aeruginosa biofilms = experiment: as above; format: cell-based, Pseudomonas aeruginosa; details: P. aeruginosa biofilms on titanium, cobalt chromium, polyethylene, PEEK coupons; dilute MB
Protocol: as §3

CN(C)c1ccc2nc3ccc(=[N+](C)C)cc-3sc2c1 [MB, methylene blue]
number of MB molecules per CFU [1]: 2.84×10^7 molecules/CFU | number of MB molecules per CFU [2]: 6.95×10^6 molecules/CFU | visual staining of biofilm (S. aureus biofilms): visually turned blue | visual staining of biofilm (P. aeruginosa biofilms): visually turned blue
